From US20260297087A1, “Pyridoimidazolone Compounds, Preparation Thereof and Therapeutic Uses Thereof” (Sanofi, priority 2023, published 2026)

Experiments:
ERK5 = target: T1, ERK5 (Homo sapiens, UniProt Q13164); experiment: Inhibition of Cellular ERK5 Activity (cell-based assay, MEF2 luciferase reporter in SN12C cells); settings: renal cancer cell line SN12C, doxycycline-induced MEKSDD, mean where repeated
T1 construct: MEF2-luciferase reporter
Outline: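 SN12C cells carrying a MEF2-luciferase reporter and doxycycline-inducible (1 μg/ml) constitutively active MEK5DD, seeded 24 h before compound addition at 0.3–1000 nM (0.1% DMSO final). Luminescence read; IC50 is the concentration giving 50% signal reduction versus DMSO-treated cells.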

[1] = target: T2, ERK5 (activated catalytic domain) (Homo sapiens, UniProt Q13164); experiment: Cell-Free Assay of ERK5 Inhibition (Time-Resolved FRET, 4EBP1 peptide phosphorylation); format: biochemical; settings: ERK5 catalytic domain 4 nM, 1 mM ATP, 1 μM biotinylated 4EBP1 peptide, 30 min at 37° C.; mean where repeated; read-out: Cell-free assay (IC50 in nM)
T2 construct: purchased CarnaBiosciences 04-146
Outline: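 Activated ERK5 catalytic domain at 4 nM preincubated 30 min at room temperature with compound, then 1 mM ATP and 1 μM biotinylated 4EBP1 (aa 30-52) peptide added for 30 min at 37° C. Phosphorylation detected by TR-FRET; IC50 versus DMSO control, repeats averaged.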

T2 sequence (Q13164 55-347 limits assumed): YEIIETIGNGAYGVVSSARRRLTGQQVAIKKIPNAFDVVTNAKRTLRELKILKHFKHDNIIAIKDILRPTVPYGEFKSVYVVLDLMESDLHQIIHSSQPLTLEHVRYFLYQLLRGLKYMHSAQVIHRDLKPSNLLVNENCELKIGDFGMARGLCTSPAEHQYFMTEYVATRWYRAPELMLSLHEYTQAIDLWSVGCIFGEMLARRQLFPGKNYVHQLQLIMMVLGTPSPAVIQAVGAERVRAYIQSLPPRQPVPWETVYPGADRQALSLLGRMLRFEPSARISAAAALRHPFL
T1 sequence (Q13164 whole entry): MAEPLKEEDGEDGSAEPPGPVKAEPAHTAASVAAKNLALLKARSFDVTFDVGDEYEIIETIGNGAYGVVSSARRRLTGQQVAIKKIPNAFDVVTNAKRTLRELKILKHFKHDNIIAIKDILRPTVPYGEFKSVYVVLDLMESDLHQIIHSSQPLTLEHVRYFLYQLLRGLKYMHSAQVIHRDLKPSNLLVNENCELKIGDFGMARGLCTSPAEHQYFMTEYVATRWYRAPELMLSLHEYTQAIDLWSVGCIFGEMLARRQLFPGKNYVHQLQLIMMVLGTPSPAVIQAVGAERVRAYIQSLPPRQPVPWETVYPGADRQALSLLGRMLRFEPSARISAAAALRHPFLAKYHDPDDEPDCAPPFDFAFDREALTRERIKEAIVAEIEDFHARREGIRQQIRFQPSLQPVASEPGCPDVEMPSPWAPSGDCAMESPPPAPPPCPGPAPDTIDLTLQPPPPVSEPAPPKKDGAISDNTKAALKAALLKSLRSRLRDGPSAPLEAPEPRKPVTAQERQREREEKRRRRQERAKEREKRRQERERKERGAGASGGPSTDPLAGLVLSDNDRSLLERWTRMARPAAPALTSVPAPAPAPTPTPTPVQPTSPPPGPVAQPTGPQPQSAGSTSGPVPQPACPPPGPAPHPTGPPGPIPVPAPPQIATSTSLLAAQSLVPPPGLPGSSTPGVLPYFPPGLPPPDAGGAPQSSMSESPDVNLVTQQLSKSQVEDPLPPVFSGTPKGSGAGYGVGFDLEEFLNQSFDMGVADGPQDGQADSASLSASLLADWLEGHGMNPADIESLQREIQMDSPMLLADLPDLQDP

Row | SMILES | IC50 (ERK5) | IC50 [1]
1 | CN1CCC(c2cnc3[nH]c(=O)n(C4CCN(C(=O)c5ccc(OC(F)(F)F)cc5N)CC4)c3c2)CC1 [Example 54, 1-[1-[2-amino-4-(trifluoromethoxy)benzoyl]-4-piperidyl]-6-(1-methyl-4-piperidyl)-3H-imidazo[4,5-b]pyridin-2-one] | 168 nM | 78 nM
2 | O=C(c1ccc(OC(F)(F)F)cc1)N1CCC(n2c(=O)[nH]c3ncc([C@H]4CC[C@H](O)CC4)cc32)CC1 [Example 57, trans-6-(4-hydroxycyclohexyl)-1-[1-[4-(trifluoromethoxy)benzoyl]-4-piperidyl]-3H-imidazo[4,5-b]pyridine-2-one] | 204 nM | 180 nM
3 | O=C(c1ccc(OC(F)(F)F)cc1)N1CCC(n2c(=O)[nH]c3ncc([C@H]4CC[C@@H](O)CC4)cc32)CC1 [Example 58, cis-6-(4-hydroxycyclohexyl)-1-[1-[4-(trifluoromethoxy)benzoyl]-4-piperidyl]-3H-imidazo[4,5-b]pyridin-2-one] | 222 nM | 288 nM
4 | CC(C)(C)OC(=O)Nc1cc(OC(F)(F)F)ccc1C(=O)N1CCC(n2c(=O)[nH]c3ncc(Br)cc32)CC1 [Example 59, tert-butyl N-[2-[4-(6-bromo-2-oxo-3H-imidazo[4,5-b]pyridin-1-yl)piperidine-1-carbonyl]-5-(trifluoromethoxy)phenyl]carbamate] | 2150 nM | 30000 nM
5 | O=C(c1ccc(OC(F)(F)F)cc1)N1CCC(n2c(=O)[nH]c3ncc(Br)cc32)CC1 [Example 60, 6-bromo-1-[1-[4-(trifluoromethoxy)benzoyl]-4-piperidyl]-3H-imidazo[4,5-b]pyridin-2-one] | 641 nM | 1080 nM
